Data published in US10654834B2 (Venenum Biodesign, LLC, priority 2016, dated 2020).

How the values were obtained:
mouse TGR5 receptor = target: T1, mouse TGR5 receptor (Mus musculus, UniProt Q80SS6); test: Mouse TGR5 HTRF cAMP production assay (HEK293-EBNA cells, Cisbio cAMP HiRange kit); assay type: cell-based; details: HEK293-EBNA cells overexpressing mouse TGR5, HTRF cAMP assay
T1 construct: host or cells: HEK293-EBNA (293 c18, ATCC CRL10852)
T1 sequence (Q80SS6 1-329): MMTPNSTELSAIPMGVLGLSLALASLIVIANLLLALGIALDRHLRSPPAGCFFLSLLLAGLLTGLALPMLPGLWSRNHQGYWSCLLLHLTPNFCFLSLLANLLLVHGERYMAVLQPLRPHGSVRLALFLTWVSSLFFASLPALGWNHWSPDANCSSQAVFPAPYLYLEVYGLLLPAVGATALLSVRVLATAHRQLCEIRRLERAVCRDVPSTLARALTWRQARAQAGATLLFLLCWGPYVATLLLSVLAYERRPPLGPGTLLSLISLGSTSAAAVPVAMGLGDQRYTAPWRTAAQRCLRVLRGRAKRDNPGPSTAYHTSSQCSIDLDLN
Procedure, shortened: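 cAMP accumulation was read by competitive HTRF after 1 h room-temperature compound treatment, with a further 1 h conjugate incubation. Cells were mouse TGR5-overexpressing HEK293-EBNA in serum-free DMEM plus 500 μM IBMX. Compounds ran as 12-point half-log series in duplicate, and EC50 values were reported.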

[1] = Pharmacokinetic profile in mice after oral gavage; assay type: in vivo, mouse; details: mouse; fasted male Hilltop mice, 10 mg/kg oral gavage, plasma; read-out: Cmax
Procedure, shortened: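 Plasma exposure (Cmax, AUC) by non-compartmental analysis of LC-MS/MS data, orbital blood taken at 0, 0.25, 0.5, 1, 2 and 4 h, each value averaging three mice. Dosing: 10 mg/kg oral gavage to overnight-fasted male Hilltop mice (8 weeks), vehicle PEG400/CMC/Tween-80.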

Compound	EC50 (mouse TGR5 receptor) [nM]	Cmax [1] [ng/mL]
N#C/N=C(\NCCC(=O)O)NCCC1CCN(c2cc(N3CC[C@H]3C(=O)NCCc3ccc(C#N)cc3)nc(C(F)(F)F)n2)CC1 [Compound 351, (S,Z)-3-(2-cyano-3-(2-(1-(6-(2-((4-cyanophenethyl)carbamoyl)azetidin-1-yl)-2-(trifluoromethyl)pyrimidin-4-yl)piperidin-4-yl)ethyl)guanidino)propanoic acid]	< 100	301
O=C(CCC1CCN(c2cc(N3CC[C@H]3C(=O)NCCc3ccc(C(F)(F)F)cc3)nc(C(F)(F)F)n2)CC1)NCS(=O)(=O)O [Compound 253, (S)-(3-(1-(2-(trifluoromethyl)-6-(2-((4-(trifluoromethyl)phenethyl)-carbamoyl)azetidin-1-yl)pyrimidin-4-yl)piperidin-4-yl)propanamido)-methanesulfonic acid]	< 100	48
N#Cc1ccc(CCNC(=O)[C@@H]2CCCN2c2cc(N3CCC(CCNC(=O)[C@@H](N)CS(=O)(=O)O)CC3)nc(C(F)(F)F)n2)cc1 [Compound 123, (R)-2-amino-3-((2-(1-(6-((S)-2-((4-cyanophenethyl)carbamoyl)pyrrolidin-1-yl)-2-(trifluoromethyl)pyrimidin-4-yl)piperidin-4-yl)ethyl)amino)-3-oxopropane-1-sulfonic acid]	< 100	1.4
N#Cc1ccc(CCNC(=O)[C@@H]2CCN2c2cc(N3CCC(CCCC(=O)O)CC3)nc(C(F)(F)F)n2)cc1 [Compound 231, (S)-4-(1-(6-(2-((4-cyanophenethyl)carbamoyl)azetidin-1-yl)-2-(trifluoromethyl)pyrimidin-4-yl)piperidin-4-yl)butanoic acid]	< 100	28
N#Cc1ccc(CCNC(=O)[C@@H]2CCN2c2cc(N3CCC(CCNC(=O)NCS(=O)(=O)O)CC3)nc(C(F)(F)F)n2)cc1 [Compound 270, (S)-(3-(2-(1-(6-(2-((4-cyanophenethyl)carbamoyl)azetidin-1-yl)-2-(trifluoromethyl)pyrimidin-4-yl)piperidin-4-yl)ethyl)ureido)-methanesulfonic acid]	< 100	5.4
N#Cc1ccc(CCNC(=O)[C@@H]2CCCN2c2cc(N3CCC(CCCC(=O)O)CC3)cc(C(F)(F)F)n2)cc1 [Compound 197, (S)-4-(1-(2-(2-((4-cyanophenethyl)carbamoyl)pyrrolidin-1-yl)-6-(trifluoromethyl)pyridin-4-yl)piperidin-4-yl)butanoic acid]	< 100	143
NS(=O)(=O)CCNC(=O)CCCC1CCN(c2cc(N3CCC[C@H]3C(=O)NCCc3ccc(C(F)(F)F)cc3)nc(C(F)(F)F)n2)CC1 [Compound 59, (S)-1-(6-(4-(4-oxo-4-((2-sulfamoylethyl)amino)butyl)piperidin-1-yl)-2-(trifluoromethyl)pyrimidin-4-yl)-N-(4-(trifluoromethyl)phenethyl)-pyrrolidine-2-carboxamide]	< 100	43
N#Cc1ccc(CCNC(=O)[C@@H]2CCCN2c2cc(N3CCC(CCCC(=O)NCCS(=O)(=O)O)CC3)cc(C(F)(F)F)n2)cc1 [Compound 199, (S)-2-(4-(1-(2-(2-((4-cyanophenethyl)carbamoyl)pyrrolidin-1-yl)-6-(trifluoromethyl)pyridin-4-yl)piperidin-4-yl)butanamido)ethanesulfonic acid]	< 100	1
N#Cc1ccc(CCNC(=O)[C@@H]2CCN2c2cc(N3CCC(CCNC(=O)NCCC(=O)O)CC3)nc(C(F)(F)F)n2)cc1 [Compound 268, (S)-3-(3-(2-(1-(6-(2-((4-cyanophenethyl)carbamoyl)azetidin-1-yl)-2-(trifluoromethyl)pyrimidin-4-yl)piperidin-4-yl)ethyl)ureido)propanoic acid]	< 100	7.7
N#Cc1ccc(CCNC(=O)[C@@H]2CCCN2c2cc(-c3ccc(CCC(=O)NCS(=O)(=O)O)cc3)cc(C(F)(F)F)n2)cc1 [Compound 206, (S)-(3-(4-(2-(2-((4-cyanophenethyl)carbamoyl)pyrrolidin-1-yl)-6-(trifluoromethyl)pyridin-4-yl)phenyl)propanamido)methanesulfonic acid]	< 100	3.8
COc1cc(C(F)(F)F)ccc1CCNC(=O)[C@@H]1CCCN1c1cc(N2CCC(CCCC(=O)NCCS(=O)(=O)O)CC2)nc(C(F)(F)F)n1 [Compound 57, (S)-2-(4-(1-(6-(2-((2-methoxy-4-(trifluoromethyl)phenethyl)carbamoyl)-pyrrolidin-1-yl)-2-(trifluoromethyl)-pyrimidin-4-yl)piperidin-4-yl)butanamido)ethanesulfonic acid]	< 100	13
N#Cc1ccc(CCNC(=O)[C@@H]2CCN2c2cc(N3CCC(CCNC(=O)NCCOCCNC(=O)NCCC(=O)O)CC3)nc(C(F)(F)F)n2)cc1 [Compound 360, (S)-1-(1-(6-(2-((4-cyanophenethyl)carbamoyl)azetidin-1-yl)-2-(trifluoromethyl)pyrimidin-4-yl)piperidin-4-yl)-4,12-dioxo-8-oxa-3,5,11,13-tetraazahexadecan-16-oic acid]	< 100	0.5
N#Cc1ccc(CCNC(=O)[C@@H]2CCN2c2cc(N3CCC(CCNC(=O)NCCNC(=N)N)CC3)nc(C(F)(F)F)n2)cc1 [Compound 286, (S)-N-(4-cyanophenethyl)-1-(6-(4-(2-(3-(2-guanidinoethyl)-ureido)ethyl)piperidin-1-yl)-2-(trifluoromethyl)pyrimidin-4-yl)azetidine-2-carboxamide]	< 100	5.2

More lines, now with the values ahead:

EC50 (mouse TGR5 receptor) [nM]	Cmax [1] [ng/mL]	Compound
< 100	2.7	N#Cc1ccc(CCNC(=O)[C@@H]2CCCN2c2cc(N3CCC(CCCC(=O)NCCS(=O)(=O)NCC(=O)O)CC3)nc(C(F)(F)F)n2)cc1 [Compound 115, (S)-2-(2-(4-(1-(6-(2-((4-cyanophenethyl)carbamoyl)pyrrolidin-1-yl)-2-(trifluoromethyl)pyrimidin-4-yl)piperidin-4-yl)butanamido)-ethylsulfonamido)acetic acid]
< 100	36	N#Cc1ccc(CCNC(=O)[C@@H]2CCN2c2cc(N3CCC(CCCC(=O)NCP(=O)(O)O)CC3)nc(C(F)(F)F)n2)cc1 [Compound 362, (S)-((4-(1-(6-(2-((4-cyanophenethyl)carbamoyl)azetidin-1-yl)-2-(trifluoromethyl)pyrimidin-4-yl)piperidin-4-yl)butanamido)methyl)phosphonic acid]
< 100	48	N#Cc1ccc(CCNC(=O)[C@@H]2CCN2c2cc(N3CCC(CCCC(=O)NC[C@@H](O)CO)CC3)nc(C(F)(F)F)n2)cc1 [Compound 261, (S)-N-(4-cyanophenethyl)-1-(6-(4-(4-(((R)-2,3-dihydroxypropyl)amino)-4-oxobutyl)piperidin-1-yl)-2-(trifluoromethyl)pyrimidin-4-yl)azetidine-2-carboxamide]
< 100	3.4	N#Cc1ccc(CCNC(=O)[C@@H]2CCN2c2cc(N3CCC(CCCC(=O)NCCS(=O)(=O)O)CC3)nc(C(F)(F)F)n2)cc1 [Compound 249, (S)-2-(4-(1-(6-(2-((4-cyanophenethyl)carbamoyl)azetidin-1-yl)-2-(trifluoromethyl)pyrimidin-4-yl)piperidin-4-yl)butanamido)ethanesulfonic acid]
< 100	8.9	N#Cc1ccc(CCNC(=O)[C@@H]2CCCN2c2cc(N3CCC(CCCC(=O)NCCC(=O)O)CC3)nc(C(F)(F)F)n2)cc1 [Compound 104, (S)-3-(4-(1-(6-(2-((4-cyanophenethyl)carbamoyl)pyrrolidin-1-yl)-2-(trifluoromethyl)pyrimidin-4-yl)-piperidin-4-yl)butanamido)-propanoic acid]
< 100	4.8	O=C(O)CNS(=O)(=O)CCNC(=O)CCCC1CCN(c2cc(N3CCC[C@H]3C(=O)NCCc3ccc(C(F)(F)F)cc3)nc(C(F)(F)F)n2)CC1 [Compound 114, (S)-2-(2-(4-(1-(2-(trifluoromethyl)-6-(2-((4-(trifluoromethyl)phenethyl)-carbamoyl)-pyrrolidin-1-yl)pyrimidin-4-yl)piperidin-4-yl)butanamido)ethyl-sulfonamido)acetic acid]
< 100	670	N#Cc1ccc(CCNC(=O)[C@@H]2CCCN2c2cc(N3CCC(CCCC(=O)NCCNC(=N)N)CC3)nc(C(F)(F)F)n2)cc1 [Compound 128, (S)-N-(4-cyanophenethyl)-1-(6-(4-(4-((2-guanidinoethyl)amino)-4-oxobutyl)piperidin-1-yl)-2-(trifluoromethyl)pyrimidin-4-yl)pyrrolidine-2-carboxamide]
< 100	9.3	N#Cc1ccc(CCNC(=O)[C@@H]2CCCN2c2cc(N3CCC(CCCC(=O)NCC(=O)O)CC3)nc(C(F)(F)F)n2)cc1 [Compound 103, (S)-2-(4-(1-(6-(2-((4-cyanophenethyl)carbamoyl)pyrrolidin-1-yl)-2-(trifluoromethyl)pyrimidin-4-yl)piperidin-4-yl)butanamido)acetic acid]
